From patent US10399940B2, “Substituted pyrrolidines and methods of use” (AbbVie S.à.r.l., priority 2016, dated 2019)
Where two headings read alike, the source gives them in different places.

Biological target: T1, F508delCFTR (Homo sapiens, UniProt P13569, DEL508-508)
T1 construct: expressed in transfected cells; host or cells: CFBE41o- (human lung derived epithelial cell line), doxycycline-inducible expression
Experiment: Cell Surface Expression-Horse Radish Peroxidase (CSE-HRP) assay
Type: cell-based
Conditions: CFBE41o-F508delCFTR-HRP cells; for Maximum % activity (with co-corrector): with co-corrector (2 μM); for Maximum % activity (with co-corrector) / Maximum % activity (without co-corrector): normalized to on-plate positive control, highest concentration 20 μM
How it was run: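 Surface F508delCFTR-HRP was read by luminol luminescence after 18–24 h compound exposure at 33 °C, without or with 2 μM co-corrector. Doses were eight 3-fold steps from 20 μM, in doxycycline-induced (0.5 μg/mL, 72 h) CFBE41o- cells. % activity was scaled to the on-plate 2 μM positive control minus DMSO; EC50 came from a variable-slope sigmoid fit.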

[1] = test compound without co-corrector, 18-24 hours at 33° C., read-out: EC50 (without co-corrector)
[2] = with co-corrector (2 μM of 3-[(2R,4R)-4-({[1-(2,2-difluoro-1,3-benzodioxol-5-yl)cyclopropyl]carbonyl}amino)-7-methoxy-3,4-dihydro-2H-chromen-2-yl]benzoic acid), read-out: EC50 (with co-corrector)

T1 sequence (P13569 with tags, fused parts or gaps DEL508-508): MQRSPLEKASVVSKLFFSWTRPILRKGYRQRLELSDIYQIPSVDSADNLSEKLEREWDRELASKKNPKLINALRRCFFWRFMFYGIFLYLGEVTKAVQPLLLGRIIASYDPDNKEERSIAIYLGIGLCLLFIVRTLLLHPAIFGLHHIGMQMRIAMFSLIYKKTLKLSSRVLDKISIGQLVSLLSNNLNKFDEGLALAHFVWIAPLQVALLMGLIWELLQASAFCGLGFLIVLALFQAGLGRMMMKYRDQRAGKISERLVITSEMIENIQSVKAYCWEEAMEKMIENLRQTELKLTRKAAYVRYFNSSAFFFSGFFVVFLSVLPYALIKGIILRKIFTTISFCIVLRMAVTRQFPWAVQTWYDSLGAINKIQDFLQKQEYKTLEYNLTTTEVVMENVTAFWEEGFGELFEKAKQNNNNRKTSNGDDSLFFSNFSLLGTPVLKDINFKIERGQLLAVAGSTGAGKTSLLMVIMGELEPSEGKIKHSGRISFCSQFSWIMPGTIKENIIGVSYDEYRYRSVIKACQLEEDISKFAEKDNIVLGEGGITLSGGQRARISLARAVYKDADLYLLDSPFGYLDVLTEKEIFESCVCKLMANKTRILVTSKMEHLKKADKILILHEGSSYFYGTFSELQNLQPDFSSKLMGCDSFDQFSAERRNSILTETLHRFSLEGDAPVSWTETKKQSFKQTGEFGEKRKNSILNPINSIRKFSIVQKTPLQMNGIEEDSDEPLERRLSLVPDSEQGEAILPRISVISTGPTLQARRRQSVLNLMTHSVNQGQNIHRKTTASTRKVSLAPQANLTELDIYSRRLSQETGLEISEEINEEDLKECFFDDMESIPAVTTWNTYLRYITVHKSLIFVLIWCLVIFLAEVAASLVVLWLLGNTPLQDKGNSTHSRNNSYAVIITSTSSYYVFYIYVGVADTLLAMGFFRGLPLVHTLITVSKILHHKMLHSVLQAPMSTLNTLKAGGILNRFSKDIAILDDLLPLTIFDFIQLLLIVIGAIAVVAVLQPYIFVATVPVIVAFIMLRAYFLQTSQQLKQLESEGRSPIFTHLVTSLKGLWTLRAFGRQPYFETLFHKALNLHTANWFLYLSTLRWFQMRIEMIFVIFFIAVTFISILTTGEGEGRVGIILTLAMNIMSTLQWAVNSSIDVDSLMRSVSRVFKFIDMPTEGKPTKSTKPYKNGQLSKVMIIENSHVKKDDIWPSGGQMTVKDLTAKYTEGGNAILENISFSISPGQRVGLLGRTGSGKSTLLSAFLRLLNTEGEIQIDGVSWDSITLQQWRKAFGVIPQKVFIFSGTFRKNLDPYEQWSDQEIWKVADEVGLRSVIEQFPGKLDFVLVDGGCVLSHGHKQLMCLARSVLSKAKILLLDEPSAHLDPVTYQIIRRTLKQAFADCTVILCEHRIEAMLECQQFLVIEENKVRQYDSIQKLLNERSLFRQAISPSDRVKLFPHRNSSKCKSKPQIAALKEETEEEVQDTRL

SMILES | EC50 [1] | EC50 [2] | Maximum % activity (with co-corrector) | Maximum % activity (without co-corrector)
COc1ccc(C(C)(C)C)cc1CO[C@H]1[C@H](C(C)(C)C)[C@@H](C(=O)O)N(C(=O)O[C@@H](C)C(F)(F)F)[C@H]1c1cccnc1OC(C)C [Example 274, (2S,3R,4S,5S)-3-tert-butyl-4-[(5-tert-butyl-2-methoxyphenyl)methoxy]-5-{2-[(propan-2-yl)oxy]pyridin-3-yl}-1-({[(2S)-1,1,1-trifluoropropan-2-yl]oxy}carbonyl)pyrrolidine-2-carboxylic acid] | < 1000 nM | < 1000 nM | +++ (≥350) | +++ (≥200)
COc1ncc(C(F)(F)F)cc1CO[C@H]1[C@H](C(C)(C)C)[C@@H](C(=O)O)N(C(=O)[C@H]2C[C@@H]3CC[C@H]2O3)[C@H]1c1cccc(C(C)(C)C)c1 [Example 154, (2S,3R,4S,5S)-3-tert-butyl-5-(3-tert-butylphenyl)-4-{[2-methoxy-5-(trifluoromethyl)pyridin-3-yl]methoxy}-1-[(1R,2S,4S)-7-oxabicyclo[2.2.1]heptane-2-carbonyl]pyrrolidine-2-carboxylic acid] | < 1000 nM | < 1000 nM | ++ (≥150 and <350) | + (<100)
COc1nc2cc(C)cc(C)c2cc1CO[C@H]1[C@H](C(C)(C)C)[C@@H](C(=O)O)N(C(=O)C2CCCCC2)[C@H]1c1cccnc1OC(C)C [Example 252, (2S,3R,4S,5S)-3-tert-butyl-1-(cyclohexanecarbonyl)-4-[(2-methoxy-5,7-dimethylquinolin-3-yl)methoxy]-5-{2-[(propan-2-yl)oxy]pyridin-3-yl}pyrrolidine-2-carboxylic acid] | 1000 to 10000 nM | 1000 to 10000 nM | +++ (≥350) | +++ (≥200)
CC(C)OC(=O)N1[C@H](C(=O)O)[C@@H](C(C)(C)C)[C@H](OCc2cc(C(F)(F)F)cnc2O)[C@@H]1c1ccccc1 [Example 107, (2S,3R,4S,5S)-3-tert-butyl-4-{[2-hydroxy-5-(trifluoromethyl)pyridin-3-yl]methoxy}-5-phenyl-1-{[(propan-2-yl)oxy]carbonyl}pyrrolidine-2-carboxylic acid] | 1000 to 10000 nM | 1000 to 10000 nM | ++ (≥150 and <350) | + (<100)
COc1ccc(C(F)(F)F)cc1CO[C@@H]1[C@@H](C(C)(C)C)[C@H](C(=O)O)N(C(=O)[C@@H]2CCC[C@@H](OC)C2)[C@@H]1c1ccccc1 (mixture of isomers) [Example 29, rac-(2R,3S,4R,5R)-3-(tert-butyl)-4-((2-methoxy-5-(trifluoromethyl)benzyl)oxy)-1-((1R,3R)-3-methoxycyclohexanecarbonyl)-5-phenylpyrrolidine-2-carboxylic acid] | 1000 to 10000 nM | 1000 to 10000 nM | +++ (≥350) | +++ (≥200)
COc1ccc(C(C)(C)C)cc1CO[C@H]1[C@H](C(C)(C)C)[C@@H](C(=O)O)N(C(=O)C2CCCCC2)[C@H]1c1cccnc1OC(C)C [Example 251, (2S,3R,4S,5S)-3-tert-butyl-4-[(5-tert-butyl-2-methoxyphenyl)methoxy]-1-(cyclohexanecarbonyl)-5-{2-[(propan-2-yl)oxy]pyridin-3-yl}pyrrolidine-2-carboxylic acid] | < 1000 nM | < 1000 nM | +++ (≥350) | +++ (≥200)
Cc1ccccc1[C@H]1[C@@H](OCc2nc3ccccc3n2C)[C@H](C(C)(C)C)[C@@H](C(=O)O)N1C(=O)[C@@H]1CCCCO1 [Example 255, (2S,3R,4S,5S)-3-tert-butyl-4-[(1-methyl-1H-benzimidazol-2-yl)methoxy]-5-(2-methylphenyl)-1-[(2S)-oxane-2-carbonyl]pyrrolidine-2-carboxylic acid] | > 10000 nM | 1000 to 10000 nM | ++ (≥150 and <350) | + (<100)

Continued, values first:

EC50 [1] | EC50 [2] | Maximum % activity (with co-corrector) | Maximum % activity (without co-corrector) | SMILES
1000 to 10000 nM | 1000 to 10000 nM | ++ (≥150 and <350) | + (<100) | COc1ncc(C(F)(F)F)cc1CO[C@H]1[C@H](C(C)(C)C)[C@@H](C(=O)O)N(C(=O)[C@@H]2CCCCO2)[C@H]1c1ccccc1-c1cncnc1 [Example 197, (2S,3R,4S,5S)-3-tert-butyl-4-{[2-methoxy-5-(trifluoromethyl)pyridin-3-yl]methoxy}-1-[(2S)-oxane-2-carbonyl]-5-[2-(pyrimidin-5-yl)phenyl]pyrrolidine-2-carboxylic acid]
1000 to 10000 nM | 1000 to 10000 nM | +++ (≥350) | +++ (≥200) | COc1ncc(C(F)(F)F)cc1CO[C@H]1[C@H](C(C)(C)C)[C@@H](C(=O)O)N(C(=O)[C@@H]2CCCCO2)[C@H]1c1ccccc1-c1ccc(Cl)cc1 [Example 202, (2S,3R,4S,5S)-3-tert-butyl-5-(4′-chloro[1,1′-biphenyl]-2-yl)-4-{[2-methoxy-5-(trifluoromethyl)pyridin-3-yl]methoxy}-1-[(2S)-oxane-2-carbonyl]pyrrolidine-2-carboxylic acid]
1000 to 10000 nM | < 1000 nM | +++ (≥350) | +++ (≥200) | COc1nc2cc(C)cc(C)c2cc1CO[C@H]1[C@H](C(C)(C)C)[C@@H](C(=O)O)N(C(=O)[C@@H]2CCCCO2)[C@H]1c1ccccc1C [Example 238, (2S,3R,4S,5S)-3-tert-butyl-4-[(2-methoxy-5,7-dimethylquinolin-3-yl)methoxy]-5-(2-methylphenyl)-1-[(2S)-oxane-2-carbonyl]pyrrolidine-2-carboxylic acid]
1000 to 10000 nM | 1000 to 10000 nM | +++ (≥350) | ++ (≥100 and <200) | COc1ncc(C2CCC2)cc1CO[C@H]1[C@H](C(C)(C)C)[C@@H](C(=O)O)N(C(=O)OC(C)C)[C@H]1c1ccccc1F [Example 77, (2S,3R,4S,5S)-3-tert-butyl-4-[(5-cyclobutyl-2-methoxypyridin-3-yl)methoxy]-5-(2-fluorophenyl)-1-{[(propan-2-yl)oxy]carbonyl}pyrrolidine-2-carboxylic acid]
1000 to 10000 nM | 1000 to 10000 nM | +++ (≥350) | ++ (≥100 and <200) | Cc1cc(C)c2cc(CO[C@H]3[C@H](C(C)(C)C)[C@@H](C(=O)O)N(C(=O)[C@@H]4CCCCO4)[C@H]3c3ccccc3C)c(Cl)nc2c1 [Example 236, (2S,3R,4S,5S)-3-tert-butyl-4-[(2-chloro-5,7-dimethylquinolin-3-yl)methoxy]-5-(2-methylphenyl)-1-[(2S)-oxane-2-carbonyl]pyrrolidine-2-carboxylic acid]
< 1000 nM | < 1000 nM | +++ (≥350) | ++ (≥100 and <200) | COc1ncc(C2CCC2)cc1CO[C@H]1[C@H](C(C)(C)C)[C@@H](C(=O)O)N(C(=O)[C@@H]2CCCO2)[C@H]1c1ccccc1C(C)C [Example 130, (2S,3R,4S,5S)-3-tert-butyl-4-[(5-cyclobutyl-2-methoxypyridin-3-yl)methoxy]-1-[(2S)-oxolane-2-carbonyl]-5-[2-(propan-2-yl)phenyl]pyrrolidine-2-carboxylic acid]
